Like-named read-outs stand apart in the source and are kept apart here.
Tests used:
[1] = target: Epidermal Growth Factor Receptor (EGFR) (Homo sapiens (Human), UniProt P00533); experiment: EGFR kinase assay (TR-FRET); assay type: biochemical
Text: EGFR inhibitory activity of compounds of the present invention was quantified employing the TR-FRET based EGFR assay as described in the following paragraphs.
Epidermal Growth Factor Receptor (EGFR) affinity purified from human carcinoma A431 cells (Sigma-Aldrich, #E3641) was used as kinase. As substrate for the kinase reaction the biotinylated peptide biotin-Ahx-[…] (SEQ ID NO 5) (C-terminus in amid form) was used which can be purchased e.g. form the company Biosyntan GmbH (Berlin-Buch, Germany).
For the assay 50 nL of a 100 fold concentrated solution of the test compound in DMSO was pipetted into a black low volume 384 well microtiter plate (Greiner Bio-One, Frickenhausen, Germany), 2 μL of a solution of EGFR in aqueous assay buffer [50 mM Hepes/HCl pH 7.0, 1 mM MgCl2, 5 mM MnCl2, 0.5 mM activated sodium ortho-vanadate, 0.005% (v/v) Tween-20]were added and the mixture was incubated for 15 min at 22° C. to allow pre-binding of the test compounds to the enzyme before the start of the kinase reaction. […] The concentration of EGFR was adjusted depending of the activity of the enzyme lot and was chosen appropriate to have the assay in the linear range, typical concentration were about 3 U/ml. The reaction was stopped by the addition of 5 μl of a solution of HTRF detection reagents (0.1 μM streptavidine-XL665 [Cis Biointernational] and 1 nM PT66-Tb-Cryptate, an terbium-cryptate labelled anti-phospho-tyrosine antibody from Cis Biointernational [instead of the PT66-Tb-cryptate PT66-Eu-Chelate from Perkin Elmer can also be used]) in an aqueous EDTA-solution (80 mM EDTA, 0.2% (w/v) bovine serum albumin in 50 mM HEPES pH 7.5).
The resulting mixture was incubated 1 h at 22° C. to allow the binding of the biotinylated phosphorylated peptide to the streptavidine-XL665 and the PT66-Eu-Chelate. Subsequently the amount of phosphorylated substrate was evaluated by measurement of the resonance energy transfer from the PT66-Tb-Cryptate to the streptavidine-XL665. Therefore, the fluorescence emissions at 620 nm and 665 nm after excitation at 337 nm were measured in a HTRF reader, e.g. a Pherastar (BMG Labtechnologies, Offenburg, Germany) or a Viewlux (Perkin-Elmer). The ratio of the emissions at 665 nm and at […] was taken as the measure for the amount of phosphorylated substrate.

[2] = target: human SOS1 (nucleotide exchange of K-Ras^G12C) (Homo sapiens, UniProt Q07889); experiment: Biochemical assay 2: K-Ras^G12C activation assay by hSOS1 at high GTP concentration (HTRF)
[3] = target: K-Ras^G12C : hSOS1 interaction (Homo sapiens, UniProt Q07889); experiment: Biochemical assay 1: K-Ras^G12C interaction assay with hSOS1 (HTRF); assay type: binding
[4] = target: human SOS1 (loading of human K-Ras^G12C-GDP with fluorescent GTP-analog) (Homo sapiens, UniProt Q07889); experiment: Biochemical assay 3: K-Ras^G12C activation assay by hSOS1 (HTRF)
[5] = values given in μM, read-out: EGFR kinase inhibition IC50
[6] = high GTP, read-out: Assay 2 (KRAS-Activation by SOS high GTP) activity expressed as IC50
[7] = read-out: Assay 1 (KRAS-SOS Interaction) activity expressed as IC50
[8] = no GTP, read-out: Assay 3 (KRAS-Activation by SOS no GTP) activity expressed as IC50
[9] = in μM, read-out: EGFR-assay IC50
[10] = E-notation values, unit inferred, 50 μM GTP, read-out: Assay 2 (KRAS-Activation, high GTP) IC50
[11] = E-notation values, unit inferred, read-out: Assay 1 (KRAS-SOS interaction) IC50
[12] = E-notation values, unit inferred, read-out: Assay 3 (KRAS-Activation) IC50
[13] = E-notation values, unit inferred, read-out: EGFR-assay IC50

Chain of Epidermal Growth Factor Receptor (EGFR) (P00533 25-1210): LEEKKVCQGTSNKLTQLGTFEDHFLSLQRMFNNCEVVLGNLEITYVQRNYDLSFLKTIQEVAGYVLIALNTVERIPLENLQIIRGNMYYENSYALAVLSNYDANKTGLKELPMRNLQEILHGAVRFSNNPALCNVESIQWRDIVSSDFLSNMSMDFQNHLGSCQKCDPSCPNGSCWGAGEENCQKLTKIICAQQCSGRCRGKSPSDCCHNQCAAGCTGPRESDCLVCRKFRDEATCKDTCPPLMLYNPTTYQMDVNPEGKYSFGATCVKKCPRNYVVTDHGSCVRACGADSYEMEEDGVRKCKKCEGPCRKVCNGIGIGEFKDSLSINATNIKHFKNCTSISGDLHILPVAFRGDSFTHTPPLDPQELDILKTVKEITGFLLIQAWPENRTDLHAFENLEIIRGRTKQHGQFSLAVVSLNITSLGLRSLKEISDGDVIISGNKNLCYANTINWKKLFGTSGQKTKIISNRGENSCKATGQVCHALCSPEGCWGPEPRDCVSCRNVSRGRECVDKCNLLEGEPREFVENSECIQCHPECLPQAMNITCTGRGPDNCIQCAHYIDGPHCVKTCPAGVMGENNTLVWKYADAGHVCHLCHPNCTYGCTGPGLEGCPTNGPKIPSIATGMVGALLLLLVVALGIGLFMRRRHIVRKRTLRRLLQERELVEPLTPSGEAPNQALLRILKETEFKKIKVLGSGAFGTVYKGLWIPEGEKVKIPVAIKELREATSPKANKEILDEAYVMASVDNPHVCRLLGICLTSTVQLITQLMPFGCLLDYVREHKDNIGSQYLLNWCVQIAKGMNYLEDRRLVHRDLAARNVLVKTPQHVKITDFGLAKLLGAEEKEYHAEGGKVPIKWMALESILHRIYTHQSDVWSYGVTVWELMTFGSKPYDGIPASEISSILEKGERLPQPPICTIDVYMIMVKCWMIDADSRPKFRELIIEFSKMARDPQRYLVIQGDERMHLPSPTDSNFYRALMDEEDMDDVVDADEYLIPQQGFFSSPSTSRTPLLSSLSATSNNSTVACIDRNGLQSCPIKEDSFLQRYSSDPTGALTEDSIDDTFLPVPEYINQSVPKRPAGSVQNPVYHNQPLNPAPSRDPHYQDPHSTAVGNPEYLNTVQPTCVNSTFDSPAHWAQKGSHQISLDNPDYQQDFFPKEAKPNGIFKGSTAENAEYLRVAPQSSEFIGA

Q: How did the IC50 [1, 5] turn out when `CNCc1ccccc1-c1csc(C(C)Nc2nc(C)nc3cc(OC)c(OC)cc23)c1` (single isomer, unassigned; enantiomer 1) [Example 326, 6,7-dimethoxy-2-methyl-N-[1-(4-{2-[(methylamino)methyl]phenyl}thiophen-2-yl)ethyl]quinazolin-4-amine, Enantiomer 1] was run?
A: > 20 µM

Q: Which IC50 [1, 5] does the source give for `CNCc1ccccc1-c1csc(C(C)Nc2nc(C)nc3cc(OC)c(OC)cc23)c1` (single isomer, unassigned; enantiomer 2) [Example 327, 6,7-dimethoxy-2-methyl-N-[1-(4-{2-[(methylamino)methyl]phenyl}thiophen-2-yl)ethyl]quinazolin-4-amine, Enantiomer 2] here?
A: > 20 µM

Q: With `COc1cc2nc(C)nc(N[C@H](C)c3cccc4ccccc34)c2cc1OC` [Example 1, 6,7-dimethoxy-2-methyl-N-[(1R)-1-(naphthalen-1-yl)ethyl]quinazolin-4-amine] as the molecule, how does the IC50 [1, 5] read?
A: > 20 µM

Q: `CNCc1ccccc1-c1csc(C(C)Nc2nc(C)nc3cc(OC)c(OC)cc23)c1` (centres unmarked) [Example 271, 6,7-dimethoxy-2-methyl-N-[1-(4-{2-[(methylamino)methyl]phenyl}thiophen-2-yl)ethyl]quinazolin-4-amine] was tested. Which IC50 [1, 5] did it give?
A: > 20 µM

Q: With `COc1cc2nc(C)nc(NC(C)c3ccc(-c4ccccc4CNCC(N)=O)s3)c2cc1OC` (centres unmarked) [Example 279, 2-[2-(5-{1-[(6,7-dimethoxy-2-methylquinazolin-4-yl)amino]ethyl}thiophen-2-yl)-benzyl]glycinamide] as the molecule, how does the IC50 [2, 6] read?
A: 168 nM

Q: And the IC50 [3, 7]?
A: 176 nM

Q: And the IC50 [4, 8]?
A: 160 nM

Q: For `COc1cc2nc(C)nc(NC(C)c3ccc(-c4ccccc4CNCC(=O)N(C)C)s3)c2cc1OC` (centres unmarked) [Example 280, 2-[2-(5-{1-[(6,7-dimethoxy-2-methylquinazolin-4-yl)amino]ethyl}thiophen-2-yl)benzyl]-N,N-dimethylglycinamide], which IC50 [2, 6] is on record?
A: 120 nM

Q: What about the IC50 [3, 7] of the same molecule?
A: 148 nM

Q: What about the IC50 [4, 8] of the same molecule?
A: 135 nM

Q: What does the source list for `CNC(=O)CNCc1ccccc1-c1ccc(C(C)Nc2nc(C)nc3cc(OC)c(OC)cc23)s1` (centres unmarked) [Example 282, 2-[2-(5-{1-[(6,7-dimethoxy-2-methylquinazolin-4-yl)amino]ethyl}thiophen-2-yl)benzyl]-N-methylglycinamide]?
A: IC50 [2, 6]: 265 nM; IC50 [3, 7]: 257 nM; IC50 [4, 8]: 212 nM

Q: Which results are given for `COCCNC(=O)CNCc1ccccc1-c1ccc(C(C)Nc2nc(C)nc3cc(OC)c(OC)cc23)s1` (centres unmarked) [Example 283, 2-[2-(5-{1-[(6,7-dimethoxy-2-methylquinazolin-4-yl)amino]ethyl}thiophen-2-yl)benzyl]-N-(2-methoxyethyl)glycinamide]?
A: IC50 [2, 6]: 371 nM; IC50 [3, 7]: 418 nM; IC50 [4, 8]: 344 nM

Q: For `COc1cc2nc(C)nc(NC(C)c3ccc(-c4ccccc4CNCC(=O)NCc4ccccc4)s3)c2cc1OC` (centres unmarked) [Example 284, N-benzyl-2-[2-(5-{1-[(6,7-dimethoxy-2-methylquinazolin-4-yl)amino]ethyl}thiophen-2-yl)benzyl]glycinamide], which IC50 [2, 6] is on record?
A: 879 nM

Q: And the IC50 [3, 7]?
A: 1060 nM

Q: And the IC50 [4, 8]?
A: 889 nM

Q: For `COc1cc2nc(C)nc(NC(C)c3ccc(-c4ccccc4CNCC(=O)Nc4ccccc4)s3)c2cc1OC` (centres unmarked) [Example 289, 2-[2-(5-{1-[(6,7-dimethoxy-2-methylquinazolin-4-yl)amino]ethyl}thiophen-2-yl)benzyl]-N-phenylglycinamide], which IC50 [2, 6] is on record?
A: 1180 nM

Q: What about the IC50 [3, 7] of the same molecule?
A: 2110 nM

Q: And the IC50 [4, 8]?
A: 2730 nM

Q: `COc1cc2nc(C)nc(N[C@H](C)c3cccc(-c4c[nH]cn4)c3)c2cc1OC` [Example 342, N-{(1R)-1-[3-(1H-imidazol-4-yl)phenyl]ethyl}-6,7-dimethoxy-2-methylquinazolin-4-amine] was tested. Which IC50 [2, 6] did it give?
A: 993 nM

Q: What about the IC50 [4, 8] of the same molecule?
A: 1130 nM

Q: What about the IC50 [1, 5] of the same molecule?
A: > 20 µM

Q: What does the source list for `COc1cc2nc(C)nc(NC(C)c3cccs3)c2cc1OC` (centres unmarked) [Example 347, 6,7-dimethoxy-2-methyl-N-[1-(thiophen-2-yl)ethyl]quinazolin-4-amine]?
A: IC50 [2, 6]: 9050 nM; IC50 [3, 7]: 15600 nM; inhibition at 20 µM ([4]; read-out: Assay 3 (KRAS-Activation by SOS no GTP) activity expressed as % inhibition at 20 μM, no GTP, at 20 μM): 48%

Q: With `COc1cc2nc(C)nc(NC(C)c3ccc(-c4ccccc4-c4nnn[nH]4)s3)c2cc1OC` (centres unmarked) [Example 368, 6,7-dimethoxy-2-methyl-N-[1-{5-[2-(1H-tetrazol-5-yl)phenyl]thiophen-2-yl}ethyl]-quinazolin-4-amine] as the molecule, how does the IC50 [1, 9] read?
A: > 20 µM

Q: With `Cc1nc(N[C@H](C)c2cccc(Cl)c2)c2cc(C(=O)O)ccc2n1` [Example 372, 4-{[(1R)-1-(3-chlorophenyl)ethyl]amino}-2-methylquinazoline-6-carboxylic acid] as the molecule, how does the IC50 [1, 9] read?
A: > 20 µM

Q: With `COc1cc2nc(C)nc(NC(C)c3ccc(-c4ccccc4C(O)CCc4ccccc4)s3)c2cc1OC` (centres unmarked) [Example 375, 1-[2-(5-{1-[(6,7-dimethoxy-2-methylquinazolin-4-yl)amino]ethyl}thiophen-2-yl)phenyl]-3-phenylpropan-1-ol] as the molecule, how does the IC50 [1, 9] read?
A: > 20 µM

Q: With `COc1cc2nc(C)nc(NC(C)c3ccc(-c4ccc(Br)cc4CN(C)C)s3)c2cc1OC` (centres unmarked) [Example 384, N-(1-(5-(4-bromo-2-((dimethylamino)methyl)phenyl)thiophen-2-yl)ethyl)-6,7-dimethoxy-2-methylquinazolin-4-amine] as the molecule, how does the IC50 [2, 10] read?
A: 66.5 nM

Q: And the IC50 [3, 11]?
A: 123 nM

Q: What about the IC50 [4, 12] of the same molecule?
A: 84.6 nM

Q: Which IC50 [2, 10] does the source give for `COc1cc2nc(C)nc(NC(C)c3ccc(-c4ccc(C(F)(F)F)cc4CN(C)C)s3)c2cc1OC` (centres unmarked) [Example 385, N-(1-(5-(2-((dimethylamino)methyl)-4-(trifluoromethyl)phenyl)thiophen-2-yl)ethyl)-6,7-dimethoxy-2-methylquinazolin-4-amine] here?
A: 329 nM

Q: What about the IC50 [3, 11] of the same molecule?
A: 732 nM

Q: What about the IC50 [4, 12] of the same molecule?
A: 388 nM

Q: For `COc1cc2nc(C)nc(NC(C)c3ccc(-c4ccc(C(F)(F)F)cc4C)s3)c2cc1OC` (centres unmarked) [Example 386, 6,7-di methoxy-2-methyl-N-(1-{5-[2-methyl-4-(trifluoromethyl)phenyl]-2-thienyl}ethyl)quinazolin-4-amine], which IC50 [2, 10] is on record?
A: 3660 nM

Q: And the IC50 [3, 11]?
A: 8770 nM

Q: And the IC50 [4, 12]?
A: 10100 nM

Q: For `Cc1nc(NC(C)c2ccc(-c3ccccc3CN(C)C)s2)c2cc(N3CCCC3)ccc2n1` (centres unmarked) [Example 415, N-[1-(5-{2-[(dimethylamino)methyl]phenyl}thiophen-2-yl)ethyl]-2-methyl-6-(pyrrolidin-1-yl)quinazolin-4-amine], which IC50 [2, 10] is on record?
A: 88.5 nM

Q: And the IC50 [3, 11]?
A: 115 nM

Q: And the IC50 [4, 12]?
A: 94.2 nM

Q: Which IC50 [2, 10] does the source give for `COc1cc2nc(C)nc(NC(C)c3csc(C)n3)c2cc1OC` (centres unmarked) [Example 444] here?
A: > 20000 nM

Q: What about the IC50 [4, 12] of the same molecule?
A: > 20000 nM

Q: What about the IC50 [1, 13] of the same molecule?
A: > 20 µM

Q: For `COc1cc2nc(C)nc(NC(C)c3nc(C)cs3)c2cc1OC` (centres unmarked) [Example 445, 6,7-dimethoxy-2-methyl-N-[1-(4-methyl-1,3-thiazol-2-yl)ethyl]quinazolin-4-amine], which IC50 [2, 10] is on record?
A: > 20000 nM

Q: And the IC50 [4, 12]?
A: > 20000 nM

Q: And the IC50 [1, 13]?
A: > 20 µM

Q: Which results are given for `COc1cc2nc(C)nc(NC(C)c3ccc(-c4cc(C(=O)O)n(C)n4)s3)c2cc1OC` (centres unmarked) [Example 446, 3-(5-{1-[(6,7-dimethoxy-2-methylquinazolin-4-yl)amino]ethyl}thiophen-2-yl)-1-methyl-1H-pyrazole-5-carboxylic acid]?
A: IC50 [2, 10]: > 20000 nM; IC50 [4, 12]: > 20000 nM; IC50 [1, 13]: > 20 µM

Q: With `COc1cc2nc(C)nc(NC(C)c3ccc(-c4ccc(CNC(=O)OC(C)(C)C)s4)s3)c2cc1OC` (centres unmarked) [Example 447, tert-butyl [(5′-{1-[(6,7-dimethoxy-2-methylquinazolin-4-yl)amino]ethyl}-2,2′-bithiophen-5-yl)methyl]carbamate] as the molecule, how does the IC50 [2, 10] read?
A: > 20000 nM

Q: What about the IC50 [4, 12] of the same molecule?
A: > 20000 nM

Q: What about the IC50 [1, 13] of the same molecule?
A: > 20 µM

Q: With `COc1cc2ncnc(N[C@H](C)c3cccc4ccccc34)c2cc1OC` [Reference compound, 6,7-dimethoxy-N-[(1R)-1-(1-naphthyl)ethyl]quinazolin-4-amine, reference compound] as the molecule, how does the IC50 ([1]; unit inferred, read-out: EGFR kinase inhibition IC50) read?
A: 0.553 µM
